Data published in a melting point compilation (Tetko et al.; mined from patent text by program, amines drawn as free bases though some values may be those of a salt).

Row | melting point | SMILES
1 | 168 to 169 °C | Cc1ccc(N(c2ccc(C)cc2)c2ccc(C=C3c4ccccc4C=Cc4ccccc43)cc2)cc1
2 | 169 to 171 °C | Cc1cccc(NC(=O)Nc2ccc(-c3c(C(C)C)sc4ncnc(N)c34)cc2)c1
3 | 290 to 293 °C | COc1ccc(-c2nnc3c4ccccc4c(OC4CCNC4=O)nn23)cc1 (configuration not stated)
4 | 147 to 148 °C | O=[N+]([O-])c1ccc(S(=O)(=O)NCC2CCN(C[C@H]3COc4ccc(Cl)cc4O3)CC2)cc1
5 | 61 to 62 °C | ClCCC1(CCCl)c2ccccc2Sc2ccccc21
6 | 203 to 206 °C | CN1CC(=O)Nc2ccc(C(F)(F)F)cc2C1=O
7 | 160 to 161 °C | CC(=O)NCc1ccc2c(c1)N(C1CCN(CCc3ccccc3F)CC1)CC2
8 | 67 to 79 °C | COC(=O)c1csc(-c2ccc(OC)cc2)n1
9 | 104 to 105 °C | C#CCOCC1=C(C(=O)OCC)C(c2cccc(Cl)c2Cl)C(C(=O)OC)=C(C)N1 (configuration not stated)
10 | 179 to 180 °C | CCCCCCCNC(=O)Nc1ccc(C(C)C)cc1C(=O)NCC1CCN(C(c2ccccc2)c2ccccc2)CC1
11 | 153 to 155 °C | COc1ccc2c(Cl)cc(-c3ccc(Cl)cc3)nc2c1
12 | 220 to 230 °C | O=C1c2ccc(Cl)cc2C(O)N1c1ccc2ccc(Cl)nc2n1 (configuration not stated)
13 | 136 to 145 °C | Cc1ccnc(NC(c2ccc([N+](=O)[O-])cc2)c2ccc3cccnc3c2O)n1 (configuration not stated)
14 | 69 to 70 °C | COc1ccc(CCN2COc3c(cccc3OC)C2)cc1
15 | 72 to 74 °C | O=C1NC(=O)C(Cc2ccc(OC3CCN(C(=O)OCc4ccccc4)CC3)cc2)S1 (configuration not stated)
16 | 81 to 82 °C | O=C1OC(Cc2ccccc2)CN1Cc1ccccc1 (configuration not stated)
17 | 110 to 112 °C | CCOC(=O)C(=O)Nc1ccc(CC)cc1[N+](=O)[O-]
18 | 130 to 131 °C | COC(=O)Cc1ccccc1NC(=S)NN(C)C
19 | 168 to 169 °C | CCC(CC)n1nnc2c(Nc3c(Cl)cc(OC)cc3OC)nc(C)cc21
20 | 75 to 76 °C | CCC(CC)(CC(=O)Nc1cccc(OCc2ccc3ccc(C)cc3n2)c1)C(=O)O
21 | 194 to 195 °C | CC(=O)NC1(c2ccc(=O)n(C)c2)CCCCC1
22 | 73 to 75 °C | COC(=O)CC1=C(C)/C(=C/c2ccc(SC)cc2)c2ccc(F)cc21
23 | 100 °C | COC(=O)CCCSc1c2c(=O)n(C)c(=O)n(CC(C)C)c2nn1Cc1cccc2ccccc12
24 | 157 to 159 °C | Cc1cc(C)n(-c2cncc(Nc3ccc(Cl)cc3)n2)n1

Row | melting point | SMILES
25 | 180 to 181 °C | Cc1nc2c(OCc3ccccc3Cl)nccc2n1C
26 | 135 °C | CN1C(=O)CC[C@]2(C)c3ccc(-c4cccnc4)cc3CC[C@@H]12
27 | 79 to 80 °C | CC(C)(O)Cc1ccc2ccccc2c1
28 | 119 to 120 °C | CC(=O)NC(=O)c1cccc(-c2noc(-c3ccccc3F)n2)c1
29 | 62 to 64 °C | CC(=O)Nc1ncsc1C
30 | 131 to 132 °C | COC(=O)CCCCCNC(=O)C[C@H]1O[C@H](c2cccc(OC)c2OC)c2cc(Cl)ccc2N(CC(C)(C)CO)C1=O
31 | 202 to 203 °C | O=c1[nH]c(=O)n(CCCCBr)c2cc([N+](=O)[O-])ccc12
32 | 221 to 222 °C | Cc1ccc(Nc2ccc(Nc3ncnc4cc(-c5ccccc5)sc34)cc2)cc1
33 | 54 to 58 °C | CCOC(=O)c1c(C)noc1C(=O)O
34 | 104 to 105 °C | CCOCc1cc2ccccc2oc1=Nc1ccc(CC)cc1
35 | 189 to 190 °C | O=C(O)C1CCc2c(oc3cccc(Cl)c23)C1 (configuration not stated)
36 | 128 to 130 °C | COc1ccc2c(c1)c(COC(C)(C)C(=O)O)nn2Cc1ccccc1
37 | 132 °C | Cn1cc(-c2cc(-c3cnc4ccccc4c3)ccn2)n(-c2ccc(C(C)(C)CN)cc2)c1=O
38 | 99 to 102 °C | CCOc1cccc(N2C(=O)C(=CN(C)C)c3ccccc32)c1
39 | 84 to 85 °C | COC(=O)C(=O)c1ccc(OC/C=C/c2ccc(F)cc2)cc1
40 | 156 to 158 °C | COc1ccc(OC)c(S(=O)(=O)n2c(COC(C)(C)C(=O)O)cc3cc(Cl)ccc32)c1
41 | 149 to 151 °C | CCOc1ccc(C[C@@H](NC(=O)[C@H]2CC[C@H](C(C)C)CC2)C(=O)O)cc1
42 | 112 to 113 °C | CC1OC(Cn2cncn2)(c2ccc(F)cc2F)C1(C)C (configuration not stated)
43 | 153 to 154 °C | OCC1OC(c2ccc(Cl)c(Cc3cc4ccccc4s3)c2)C(O)C(O)C1O (configuration not stated)
44 | 156 to 157 °C | CN(C)CC(=O)N1c2ccccc2N(C)S(=O)(=O)c2ccc(C(F)(F)F)cc21
45 | 78 to 82 °C | COC(=O)[C@@H]1CCCN1C(=O)CCC(=O)c1ccc(Br)cc1
46 | 207 °C | Nc1ccc(C(=O)C=Cc2ccncc2)cc1
47 | 220 to 222 °C | Cc1c(Sc2cccnc2)sc2ccc(C(=O)O)cc12
48 | 198 to 199 °C | O=C(c1cc2cccc(NS(=O)(=O)c3cccs3)c2[nH]1)N(Cc1ccccc1)Cc1ccccc1

Row | melting point | SMILES
49 | 233 to 238 °C | Cc1c(C)c(N2Cc3cc(Cl)c(Cl)cc3C2)c(C)c2c1OC(C)(C)C2c1ccc(F)cc1 (configuration not stated)
50 | 135 to 137 °C | CCCCCCCCCCCCCCS(=O)(=O)NC(=O)Nc1c(C(C)C)cccc1C(C)C
51 | 113 to 116 °C | CC(C)(C)C(=O)Nc1ccc(Cl)cc1C(=O)C[C@H]1C(=O)OCN1C(=O)OCc1ccccc1
52 | 84 to 86 °C | Brc1ccc2oc(Cc3cccs3)cc2c1
53 | 140 to 142 °C | COc1cc(Cl)c(N)c(C(=O)O)c1OC
54 | 40 to 42 °C | C=C(C)C(=O)OCCOC(=O)C(=O)OCc1ccc(OCc2ccccc2)cc1
55 | 139 °C | Oc1ccccc1Cc1cccc2[nH]ccc12
56 | 265 °C | Nc1ccc2ncnc(Nc3cc(Cl)c(Cl)cc3F)c2c1
57 | 109 to 111 °C | CCCOCc1nc(C(C)(C)O)c(C(=O)O)n1Cc1ccc(-c2ccccc2C(=O)O)cc1
58 | 75 to 91 °C | COc1cc2c(cc1Nc1ncc(Cl)c(Nc3ccccc3S(=O)(=O)N(C)C)n1)CCN(CCN1CCOCC1)C(=O)C2
59 | 96 °C | CCN(CC)C(=O)Oc1cc(-c2cccc(C(F)(F)F)c2)nc2ccccc12
60 | 108 to 112 °C | Cc1cc(N)ccc1-c1ccccc1CO
61 | 126 to 127 °C | CC[Si](C)(C)NC(=O)c1ccc(N)cc1
62 | 320 to 322 °C | CC(C)(C)c1ccc2nc3c(c(O)c2c1)CCCC3
63 | 119 to 121 °C | N#Cc1c(F)ccc(O)c1F
64 | 179 to 180 °C | CC(C)(C)c1cc(CCc2ccccc2NC(=O)NCC(C)(C)c2ccc(F)cc2)cc(C(C)(C)C)c1O
65 | 146 to 147 °C | CCOC(=O)c1cc2n(c1)CN(CCC#N)c1c(OC)cccc1-2
66 | 198 to 199 °C | COc1c(F)cc2c(c1-c1ccc(C[C@H](NC(=O)c3c(Cl)cccc3Cl)C(=O)O)cc1)OCO2
67 | 92 to 94 °C | O=C1C=C/C(=C/c2ccc(C(F)(F)F)cc2)O1
68 | 174 to 176 °C | COc1cccc2c(=O)c(C=O)coc12
69 | 116 to 120 °C | CCN1CCC=C(c2csc(N)n2)C1
70 | 275 °C | CNC(=O)[C@@H]1CSCc2c(O)cc(O)c(C)c2C(=O)OC[C@H](O)C(=O)N1
71 | 195 to 198 °C | CC(c1cc(Cl)ccc1N1CCCCC1C)C(C(N)=O)c1ccc(C(=O)O)cc1 (configuration not stated)
72 | 157 to 159 °C | Fc1ccc2[nH]cc(CC3CCN(CCOc4cccc5c4OCCO5)CC3)c2c1

Row | melting point | SMILES
73 | > 260 °C | Nc1nc2c(ncn2CCOCP(=O)(O)O)c(=O)[nH]1
74 | 145 to 146 °C | Nc1ccccc1C(=O)c1ccccn1
75 | 143 to 147 °C | O=C(O)C(CC1CCCC1)c1ccc(C#Cc2ccccn2)cc1 (configuration not stated)
76 | 177 to 179 °C | CCc1ccc2nc(Cl)nc(Nc3ccccc3C)c2c1
77 | 179 to 180 °C | CN(Cc1ccccc1)C(=O)Cn1nc(-c2ccccc2O)nc1-c1ccccc1O
78 | 303 to 304 °C | O=C1NC(=S)NC1=Cc1cc(O)c(O)c(Cl)c1
79 | 166 to 167 °C | CCOCc1nc2c(N)nc3cccnc3c2n1CC1(O)CCOCC1
80 | 121 to 123 °C | O=[N+]([O-])c1cn(-c2cccnc2)nc1C(F)(F)F
81 | > 375 °C | NC(=O)c1nc(-c2cccc(O)c2)nc2c1[nH]c(=O)n2-c1cccc(F)c1
82 | 258 to 260 °C | CCc1c(NC(=O)c2ccc(-c3ccc(F)cc3)cc2)ccc2cc(CN3CCCC3)cnc12
83 | 122 to 125 °C | COc1ccccc1Cn1c(=O)c2c(N3CCNCC3)cc(Cl)cc2n(Cc2ccccc2)c1=O
84 | 256 to 260 °C | O=C(O)c1cn(-c2ccc(F)cc2F)c2c(F)c(N3Cc4cccc(Cl)c4C3)c(F)cc2c1=O
85 | 148 to 151 °C | O=[N+]([O-])c1ccc(Oc2ccc(C(c3ccc(Oc4ccc([N+](=O)[O-])c(O)c4)cc3)(C(F)(F)F)C(F)(F)F)cc2)cc1O
86 | 270 °C | O=C(CN1CCC(Cc2ccccc2)CC1)Nc1ccc2[nH]c(=O)[nH]c2c1
87 | 87 to 88 °C | CC(C)(C)OC(=O)C(C)(C)Oc1ccc(N)cc1
88 | 248 to 249 °C | COc1ccc(-n2c(C)cc(=O)[nH]c2=S)cc1
89 | 176 to 179 °C | CC(C)(C)OC(=O)N1CCN(c2cc(N)nc(N)n2)CC1
90 | > 250 °C | CN1CC(=O)Nc2ccc(Cl)cc2C1=O
91 | 156 to 158 °C | COc1ccc(N2CCOCC2)cc1NC(=S)C(=O)O
92 | 211 to 213 °C | CC(C)(C)OC(=O)N1CCN(CC(=O)N2CCC3(CC2)Cn2cc([N+](=O)[O-])nc2O3)CC1
93 | 36 to 38 °C | COc1cnc(C)c(C)c1OC
94 | 197 °C | Nc1ccc(NCCc2ccccc2)c(S(=O)(=O)CCO)c1
95 | 245 to 250 °C | COc1cc2ncnc(NC3=CC(=O)C(N(C)C)=CC3=O)c2cc1OC

Row | SMILES | melting point
96 | CCc1c(C(=O)C(=O)NC2=CC(=O)OC2)c2ccccc2n1Cc1ccc(Cl)cc1 | 192 to 195 °C
97 | Oc1ccc(Br)cc1Cc1ncc[nH]1 | 163 to 169 °C
98 | Fc1ccccc1C1=NCc2cnc(-c3ccccc3)n2-c2ccc(Cl)cc21 | 241 to 243 °C
99 | CN(C)Cc1c[nH]c2ccc(Cl)cc12 | 127 to 130 °C
100 | CN(C)CCc1ccc(O)c2[nH]ncc12 | 223 to 227 °C
101 | N#Cc1nn(-c2c(Cl)cc(C(F)(F)F)cc2Cl)c(N2CCOCC2)c1S(=O)(=O)C(F)(F)F | 167 to 169 °C
102 | CC(=O)Nc1ccc(C#Cc2ccc(C3CC4CCCC(C3)N4C)nn2)cc1 (configuration not stated) | 270 to 271 °C
